PMC11851430, “Workflow for E3 Ligase Ligand Validation for PROTAC Development” (ACS Chemical Biology, 2025)

Tests used:
[1] = biological target: T1, kinase protein levels in MCF-7 cells (Homo sapiens, UniProt Q9BTL3); assay: TMT-labeled quantitative proteomics; assay type: cell-based; conditions: protein FAM103A1; MCF7; 1 µM; set5
T1 construct: endogenous in cells; host or cells: MCF-7

[2] = test system: kinase expression levels in Jurkat cells; assay: Label-free quantitative proteomics of kinase parent inhibitors; assay type: cell-based, human; conditions: 6 h
Protocol: CO2. After incubation, the BRET signals were measured by a PHERAstar plate reader (BMG Labtech) following the same procedure as intact NanoBRET® measurement. Competitive displacement data were then normalized to controls and were plotted using GraphPad Prism 9 software employing a normalized 3-parameter curve fit with the following equation: […]
The effects of the compounds on cell viability was determined using the CellTiter-Glo® 2.0 Cell Viability Assay (Promega: G9241) following manufacturer’s protocol. Ten µL of Jurkat cells at […]
After equilibration, PROTACs were titrated at various concentrations using an Echo acoustic […]
volume of CellTiter-Glo® 2.0 reagent (10 µL) was added to each well and cells were incubated for 10 minutes at room temperature. Filtered luminescence was measured on a PHERAstar plate reader (BMG Labtech) and data was evaluated using GraphPad Prism 9 software employing a normalized curve it with the following equation: Y=Bottom + (Top-Bottom)/(1+10(LogEC50-X) *HillSlope).
Sample preparation. Jurkat cells (ATCC © HTB-22) were cultured in RPMI (Thermo:
Cells were seeded in 6 well plates (Greiner:
50 µl of SDS Lysis Buffer (2% SDS, 50 mM TRIS pH 8.5, 10 mM TCEP, 40 mM CAA) was added to each sample. Cells were transferred into low binding reaction tubes (Eppendorf: […]
Protein yield was determined by […]

T1 sequence (Q9BTL3 whole entry): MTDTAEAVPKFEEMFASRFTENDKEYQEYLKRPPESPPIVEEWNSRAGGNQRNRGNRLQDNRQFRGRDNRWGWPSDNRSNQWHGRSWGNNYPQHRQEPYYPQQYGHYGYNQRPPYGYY

In the case of `Cc1ncsc1-c1ccc(CNC(=O)[C@@H]2C[C@@H](O)CN2C(=O)[C@@H](NC(=O)CCCCCCN2CCN(c3ccc(Nc4ncc(Cl)c(Nc5ccccc5C(N)=O)n4)cc3)CC2)C(C)(C)C)cc1` [6-d], the “P.Value (compound/DMSO)” value [1] is reported as 0.1981 and the “log2FC (compound/DMSO)” value [1] is reported as -0.2114.
For `CCOC(=O)c1cc(Nc2cc(C3CC3)[nH]n2)nc(Nc2ccc(CC#N)cc2)n1` [compound 5], the “kinases with reduced protein levels” value ([2]; 0.25 μM) was “reduced protein levels of PLK1 and BUB1” and the “kinases with reduced protein levels” value ([2]; 2.5 μM) was “no additional kinases showed lower protein levels”.
